Where “and” joins values, the source holds several entries; their conditions need not be identical. Equal entries are not always repeated. Where two headings read alike, the source gives them in different places.
Key:
[1] = test system: P. falciparum NF54-HGL gametocytes; assay: Gametocyte viability assay (72 h, luminescence); type: cell-based, Plasmodium falciparum; settings: for gametocyte viability, dose-response: NF54-HGL
Procedure: Gametocyte viability assays on NF54-HGL parasites were performed using an adapted high-throughput protocol as previously described[15],[64]. In short, asexual blood-stage parasite cultures were set up at 1% parasitemia in a semi-automated shaker system at 5% hematocrit. From day four until day eight or nine, parasites were treated with 50 mM N-acetyl glucosamine to eliminate all asexual blood-stage parasites. Subsequently, gametocytes were isolated by a Percoll density gradient centrifugation. At day 11, gametocytes were seeded (5,000 per well) in 30 µl in white 384-well plates containing 30 µl of compounds diluted in medium (0.1% DMSO). After a 72-h incubation, 30 µl of ONE-Glo reagent (Promega) was added according to manufacturer’s protocol and luminescence was quantified using the BioTek Synergy 2 Plate reader. Values were normalized to DMSO- and epoxomicin or dihydroartemisinin-treated controls.

[2] = test system: P. falciparum NF54 asexual blood-stage parasites; assay: 72-h asexual blood-stage replication assay (SYBR Green); type: cell-based, Plasmodium falciparum; design: key to asexual blood stages growth, dose-response: % growth; DMSO control = 100%, DHA/epoxomicin-treated = no growth
Procedure: Replication assays were performed using a SYBR Green method as described previously. Briefly, asynchronous parasites were diluted to 0.83% parasitemia, 3% hematocrit in 30 µl medium, and added to 30 µl of diluted compounds in medium (0.1% DMSO final concentration) in black 384-wells plates. After a 72-h incubation, 30 µl of SYBR Green diluted in lysis buffer was added according to the manufacturer’s protocol (Life Technologies). Fluorescence intensity was measured on a BioTek Synergy 2 Plate Reader after 1-h incubation and was normalized to a DMSO control (100% growth) and DHA- or epoxomicin-treatment (no growth). […] Parasite survival was assessed by flow cytometry on an Accuri C6 (BD Biosciences) with BD C6 Plus software using SYBR Green and MitoTracker Deep Red FM (Life Technologies) as nuclear stain and vital dye, respectively, and data were analyzed using FlowJo (10.5.0). […] Luminescence was measured after 72 h using the Renilla-Glo(R) Luciferase Assay System (Promega E2750) and the GlomAX® Discover Multimode Microplate Reader (Promega). The luminescence values were normalized to DMSO vehicle (100% growth) and 200 nM chloroquine-treated (no growth) samples as controls.
Dose-response assays were analyzed by a nonlinear regression using a four-parameter model and the least squares method to find the best fit. One-way Analysis of variance (ANOVA) was performed using the Bonferroni’s Multiple Comparison Test. For the majority of experiments, 2-4 biological replicates were performed. Typically, 2 replicates were performed for screening activities, and a minimum of 3 replicates are performed for other experiments unless stated otherwise.

[3] = per replicate experiment, read-out: IC50, sexual blood stages
[4] = per replicate experiment, read-out: IC50, asexual blood stages
[5] = asexual blood stages NF54 parasites, read-out: IC50

Structure (SMILES) | Sexual blood stages viability, dose-response ([1]; Log concentration (M) -7.5) | Sexual blood stages viability, dose-response ([1]; Log concentration (M) -8) | Sexual blood stages viability, dose-response ([1]; Log concentration (M) -8.5) | Sexual blood stages viability, dose-response ([1]; Log concentration (M) -9) | Sexual blood stages viability, dose-response ([1]; Log concentration (M) -9.5) | Sexual blood stages viability, dose-response ([1]; Log concentration (M) -10) | IC50 [1, 3] | asexual blood stages growth, dose-response ([2]; Log concentration (M) -7.5) | asexual blood stages growth, dose-response ([2]; Log concentration (M) -8) | asexual blood stages growth, dose-response ([2]; Log concentration (M) -8.5) | asexual blood stages growth, dose-response ([2]; Log concentration (M) -9) | asexual blood stages growth, dose-response ([2]; Log concentration (M) -9.5) | asexual blood stages growth, dose-response ([2]; Log concentration (M) -10) | IC50 [2, 4] | IC50 [2, 5] | also measured
C[C@@H](CNC(=O)[C@H](O)C(C)(C)CO)NC(=O)c1cc(C#N)ccc1F [MMV693182] | 49.3 and 51 | 81.9 and 78.35 | 96 and 103.7 | 97.2 and 103.7 | 95 and 105.75 | 95.6 and 117.9 | 21.4 nM | 14.55 and 11.25 | 38 and 38.5 | 59.8 and 65.55 | 98.45 and 83.35 | 91.35 and 91.95 | 80.55 and 97.8 | 6.21 nM | – | IC50 ([1]; Plasmodium falciparum, NF54, per replicate experiment, read-out: IC50, sexual blood stages): 32.9 nM; IC50 ([1]; Plasmodium falciparum, NF54, sexual viability assay, range of independent experiments, read-out: Gametocyte IC50 range (N)): 21.4 to 32.9 nM; IC50 ([2]; Plasmodium falciparum, NF54, 72 h, 72-h asexual growth assay, range of independent experiments, read-out: Asexual blood stage IC50 range (N)): 6.2 to 7.5 nM; IC50 ([2]; Plasmodium falciparum, NF54, asexual blood stages NF54 parasites): 7.5 nM; IC50 ([2]; Plasmodium falciparum, NF54, per replicate experiment, read-out: IC50, asexual blood stages): 7.54 nM
CC(CNC(=O)C(O)C(C)(C)CO)NC(=O)CCc1ccccc1F (stereo in doubt) [MMV689258] | – | – | – | – | – | – | – | – | – | – | – | – | – | – | 7 nM | gametocyte viability, dose-response ([1]; Log concentration (M) -8): 82.05 and 46 and 45.3; gametocyte viability, dose-response ([1]; Log concentration (M) -8.5): 95.95 and 82.9 and 64.1; gametocyte viability, dose-response ([1]; Log concentration (M) -9): 97.75 and 94.05 and 92.15; gametocyte viability, dose-response ([1]; Log concentration (M) -9.5): 104.7 and 93.15 and 94.35; gametocyte viability, dose-response ([1]; Log concentration (M) -10): 106.25 and 112.55 and 90.95
CC(C)(CO)[C@@H](O)C(=O)NCCNC(=O)c1cc(C#N)ccc1F [MMV976394] | 108.15 and 96.65 | 91.85 and 97.6 | 92.6 and 88 | 87.75 and 103.75 | 90 and 115.4 | 90 and 95.6 | – | – | – | 87.25 and 70.5 | 94.8 and 82.75 | 101.5 and 89.75 | 97.1 and 96.9 | 25 nM and 6.26 nM | – | Sexual blood stages viability, dose-response ([1]; Log concentration (M) -6): 82.2 and 80.4; Sexual blood stages viability, dose-response ([1]; Log concentration (M) -6.5): 89.6 and 82.4; Sexual blood stages viability, dose-response ([1]; Log concentration (M) -7): 87.4 and 85.95; asexual blood stages growth, dose-response ([2]; Log concentration (M) -6): 3.4 and 4.05; asexual blood stages growth, dose-response ([2]; Log concentration (M) -6.5): 2.2 and 3.95
C[C@@H](CNC(=O)[C@H](O)C(C)(C)CO)NC(=O)c1cc(F)c(F)cc1F [MMV693183] | 36.75 and 49.45 and 51.8 | 69.2 and 83.95 and 95.65 | 82.4 and 91.1 and 100.8 | 98.1 and 92.5 and 103.2 | 107.25 and 92.05 and 100.45 | 92.05 and 87.2 and 94.15 | 17.8 nM and 36 nM and 36.8 nM | – | – | 38.5 and 30.4 and 47.25 and 30.7 | 74.05 and 74.55 and 77.05 and 67.5 | 92.6 and 74.65 and 93.65 and 69.75 | 93.45 and 77.05 and 101.75 and 92 | 2.37 nM and 2.81 nM and 2.66 nM and 2.15 nM | 2.8 nM | in vitro-determined IC99 [2]: 36.1 nM
C[C@@H](CNC(=O)[C@H](O)C(C)(C)CO)NC(=O)c1cccc(F)c1 (stereo in doubt) [MMV1542001] | – | – | – | 60.65 and 74.3 | 76.05 and 100.7 | 85.65 and 89 | 1.98 nM and 9.93 nM | – | – | 33 and 19.45 | 66.7 and 78.5 | 89.15 and 95.45 | 79.7 and 90.9 | 2.45 nM and 1.87 nM | 2.4 nM | –
C[C@@H](CNC(=O)[C@H](O)C(C)(C)CO)NC(=O)c1cccc(C#N)c1 (stereo in doubt) [MMV884962] | – | – | – | 92.55 and 54.1 | 110.8 and 104.4 | 97.15 and 70.3 | 5.95 nM and 2.17 nM | 11.25 and 6.6 | 55.2 and 32.3 | 80.1 and 73.8 | 84.85 and 73.05 | 95.6 and 92.6 | 93.15 and 89.75 | 12.1 nM and 7.41 nM | 7.4 nM | asexual blood stages growth, dose-response ([2]; Log concentration (M) -7): 1.15 and 1.45
